Experimental data: the supplement of paper PMC11061612

How the values were obtained:
Assay in all cases: combination Emax (second highest fraction inhibited in the dose matrix, 72 h); higher = more inhibition; extreme values may be limits of the assay
[1] = test system: A549 (Lung Adenocarcinoma)
Outline: (§1)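 Cell lines in DMEM/F12 or RPMI with 10% FBS were plated in 1536-well plates, held 24 hours at 37°C, 5% CO2, then given two-drug dose matrices for 72 hours (DMSO typically 0.2%). Viability was read by CellTiter-Glo 2.0 luminescence and scaled as inhibition from 0 (vehicle wells) to 1 (blank wells). Combination Emax is the second-highest inhibition in the matrix; Bliss excess is observed combination effect minus expected EA + EB − EA·EB, EA and EB being single-agent effects.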

[2] = test system: COR-L311 (Small Cell Lung Carcinoma)
Outline: as §1

[3] = test system: CAL-29 (Bladder Carcinoma)
Outline: as §1

[4] = test system: CCK-81 (Colorectal Carcinoma)
Outline: as §1

Hs-445 (Non-Cancerous) = test system: Hs-445 (Non-Cancerous)
Outline: as §1

IGR-37 (Melanoma) = test system: IGR-37 (Melanoma)
Outline: as §1

GI-ME-N (Neuroblastoma) = test system: GI-ME-N (Neuroblastoma)
Outline: as §1

[5] = test system: CAPAN-2 (Pancreatic Carcinoma)
Outline: as §1

[6] = test system: TT2609-C02 (Thyroid Gland Carcinoma)
Outline: as §1

U-2-OS (Osteosarcoma) = test system: U-2-OS (Osteosarcoma)
Outline: as §1

LN-405 (Glioblastoma) = test system: LN-405 (Glioblastoma)
Outline: as §1

[7] = test system: MDST8 (Colorectal Carcinoma)
Outline: as §1

[8] = test system: BICR22 (Oral Cavity Carcinoma)
Outline: as §1

PA-1 (Ovarian Carcinoma) = test system: PA-1 (Ovarian Carcinoma)
Outline: as §1

[9] = test system: KARPAS-422 (B-Cell Non-Hodgkin's Lymphoma)
Outline: as §1

8-MG-BA (Glioblastoma) = test system: 8-MG-BA (Glioblastoma)
Outline: as §1

[10] = test system: PANC-10-05 (Pancreatic Carcinoma)
Outline: as §1

[11] = test system: JSC-1 (B-Cell Non-Hodgkin's Lymphoma)
Outline: as §1

[12] = test system: NCI-H1581 (Non-Small Cell Lung Carcinoma)
Outline: as §1

A498 (Kidney Carcinoma) = test system: A498 (Kidney Carcinoma)
Outline: as §1

SMILES | combination Emax [1] | combination Emax [2] | combination Emax [3] | combination Emax [4] | combination Emax (Hs-445 (Non-Cancerous)) | combination Emax (IGR-37 (Melanoma)) | combination Emax (GI-ME-N (Neuroblastoma)) | combination Emax [5] | combination Emax [6] | combination Emax (U-2-OS (Osteosarcoma)) | combination Emax (LN-405 (Glioblastoma)) | combination Emax [7] | combination Emax [8] | combination Emax (PA-1 (Ovarian Carcinoma)) | combination Emax [9] | combination Emax (8-MG-BA (Glioblastoma)) | combination Emax [10] | combination Emax [11] | combination Emax [12] | combination Emax (A498 (Kidney Carcinoma))
Cc1c2c(nn1C)CSCc1cc(n(C)n1)CSc1cc(c3ccccc3c1)OCCCc1c(C(=O)O)n(C)c3c-2c(Cl)ccc13 [AZD5991] + Cn1cnc2c(F)c(Nc3ccc(Br)cc3Cl)c(C(=O)NOCCO)cc21 [Selumetinib] (first compound max 1 µM, 7x7, partner max 3 µM) | 0.64 | 0.247 | 0.677 | 0.947 | 0.932 | 0.996 | 0.421 | 0.482 | 0.569 | 0.331 | 0.383 | 0.746 | 0.959 | 0.865 | 0.998 | 0.739 | 0.442 | 1 | 0.991 | 0.611
Cc1cc2ncnn2cc1Nc1ncc2c(n1)n(C1CCOCC1)c(=O)n2C [AZD7648] + C=CCn1c(=O)c2cnc(Nc3ccc(N4CCN(C)CC4)cc3)nc2n1-c1cccc(C(C)(C)O)n1 [AZD1775] (first compound max 10 µM, partner max 1 µM) | 0.578 | 0.571 | 0.618 | 0.833 | 0.909 | 0.674 | 0.393 | 0.485 | 0.304 | 0.614 | 0.281 | 0.513 | 0.643 | 0.706 | 0.784 | 0.648 | 0.49 | 0.931 | 0.379 | 0.521
Cc1cc2ncnn2cc1Nc1ncc2c(n1)n(C1CCOCC1)c(=O)n2C [AZD7648] + CCN(CCO)CCCOc1ccc2c(Nc3cc(CC(=O)Nc4cccc(F)c4)[nH]n3)ncnc2c1 [AZD2811] (first compound max 10 µM, 7x7, partner max 1 µM) | 0.718 | 0.829 | 0.301 | 0.291 | 0.465 | 0.285 | 0.207 | 0.239 | 0.244 | 0.229 | 0.186 | 0.485 | 0.605 | 0.315 | 0.556 | 0.358 | 0.43 | 0.486 | 0.499 | 0.439
Cc1cc2ncnn2cc1Nc1ncc2c(n1)n(C1CCOCC1)c(=O)n2C [AZD7648] + CN(C)CCCOc1ccc(-c2ccc3ncc4c(c3c2)n(C2CCOCC2)c(=O)n4C)cn1 [AZD0156] (first compound max 10 µM, 7x7, partner max 1 µM) | 0.468 | 0.256 | 0.218 | 0.299 | 0.313 | 0.263 | 0.157 | 0.253 | 0.0937 | 0.176 | 0.164 | 0.439 | 0.384 | 0.239 | 0.479 | 0.31 | 0.483 | 0.303 | 0.369 | 0.401
Cc1cc2ncnn2cc1Nc1ncc2c(n1)n(C1CCOCC1)c(=O)n2C [AZD7648] + C[C@@H]1COCCN1C2=NC(=NC(=C2)C3(CC3)[S@](=N)(=O)C)C4=C5C=CNC5=NC=C4 [AZD6738] (first compound max 10 µM, 7x7, partner max 10 µM) | 0.786 | 0.214 | 0.598 | 0.9 | 0.853 | 0.761 | 0.59 | 0.346 | 0.191 | 0.675 | 0.43 | 0.775 | 0.761 | 0.75 | 0.639 | 0.769 | 0.49 | 0.896 | 0.471 | 0.585
Cc1cc2ncnn2cc1Nc1ncc2c(n1)n(C1CCOCC1)c(=O)n2C [AZD7648] + O=C(c1cc(Cc2n[nH]c(=O)c3ccccc23)ccc1F)N1CCN(C(=O)C2CC2)CC1 [Olaparib] (first compound max 10 µM, 7x7, partner max 10 µM) | 0.59 | 0.456 | 0.384 | 0.162 | 0.373 | 0.109 | 0.141 | 0.0547 | 0.156 | 0.118 | 0.183 | 0.289 | 0.141 | 0.374 | 0.55 | 0.329 | 0.299 | 0.0503 | 0.168 | 0.441
NC1(C(=O)N[C@@H](CCO)c2ccc(Cl)cc2)CCN(c2ncnc3[nH]ccc23)CC1 [Capivasertib] + CC(=O)c1c(C)c2cnc(Nc3ccc(N4CCNCC4)cn3)nc2n(C2CCCC2)c1=O [Palbociclib] (first compound max 10 µM, 7x7, partner max 10 µM) | 0.764 | 0.68 | 0.479 | 0.337 | 0.613 | 0.396 | 0.422 | 0.242 | 0.376 | 0.408 | 0.577 | 0.656 | 0.329 | 0.909 | 0.771 | 0.597 | 0.49 | 0.669 | 0.373 | 0.629
NC1(C(=O)N[C@@H](CCO)c2ccc(Cl)cc2)CCN(c2ncnc3[nH]ccc23)CC1 [Capivasertib] + CC(C)n1c(=O)n(C)c2cnc3cc(F)c(-c4ccc(OCCCN5CCCCC5)nc4)cc3c21 [AZD1390] (first compound max 10 µM, 7x7, partner max 0.3 µM) | 0.59 | 0.685 | 0.337 | 0.327 | 0.483 | 0.447 | 0.335 | 0.222 | 0.167 | 0.288 | 0.489 | 0.363 | 0.312 | 0.753 | 0.507 | 0.387 | 0.416 | 0.364 | 0.129 | 0.542
NC1(C(=O)N[C@@H](CCO)c2ccc(Cl)cc2)CCN(c2ncnc3[nH]ccc23)CC1 [Capivasertib] + CCN(CCO)CCCOc1ccc2c(Nc3cc(CC(=O)Nc4cccc(F)c4)[nH]n3)ncnc2c1 [AZD2811] (first compound max 10 µM, 7x7, partner max 1 µM) | 0.698 | 0.915 | 0.452 | 0.366 | 0.678 | 0.371 | 0.324 | 0.219 | 0.542 | 0.383 | 0.497 | 0.511 | 0.562 | 0.918 | 0.531 | 0.508 | 0.42 | 0.69 | 0.469 | 0.586
NC1(C(=O)N[C@@H](CCO)c2ccc(Cl)cc2)CCN(c2ncnc3[nH]ccc23)CC1 [Capivasertib] + COc1nnc2ccc(N3CCC(c4ccc(OCCN5CCN(C)C(=O)[C@H]5C)cc4)CC3)nn12 [AZD5153] (first compound max 10 µM, 7x7, partner max 1 µM) | 0.823 | 1 | 0.723 | 0.695 | 0.722 | 0.662 | 0.343 | 0.33 | 0.461 | 0.354 | 0.623 | 0.733 | 0.631 | 0.998 | 0.68 | 0.797 | 0.669 | 0.793 | 0.462 | 0.824
NC1(C(=O)N[C@@H](CCO)c2ccc(Cl)cc2)CCN(c2ncnc3[nH]ccc23)CC1 [Capivasertib] + C[C@@H]1COCCN1C2=NC(=NC(=C2)C3(CC3)[S@](=N)(=O)C)C4=C5C=CNC5=NC=C4 [AZD6738] (first compound max 10 µM, 7x7, partner max 10 µM) | 0.848 | 0.787 | 0.716 | 0.857 | 0.78 | 0.733 | 0.411 | 0.219 | 0.364 | 0.535 | 0.615 | 0.765 | 0.812 | 0.964 | 0.566 | 0.873 | 0.519 | 0.95 | 0.235 | 0.694
NC1(C(=O)N[C@@H](CCO)c2ccc(Cl)cc2)CCN(c2ncnc3[nH]ccc23)CC1 [Capivasertib] + Cn1cnc2c(F)c(Nc3ccc(Br)cc3Cl)c(C(=O)NOCCO)cc21 [Selumetinib] (first compound max 10 µM, 7x7, partner max 10 µM) | 0.922 | 0.625 | 0.66 | 0.737 | 0.623 | 0.897 | 0.377 | 0.504 | 0.542 | 0.892 | 0.539 | 0.757 | 0.949 | 0.884 | 0.58 | 0.592 | 0.727 | 0.724 | 0.513 | 0.799
Cc1nc(Nc2ncc(C(=O)Nc3c(C)cccc3Cl)s2)cc(N2CCN(CCO)CC2)n1 [Dasatinib] + CC(=O)Nc1cccc(-n2c(=O)n(C3CC3)c(=O)c3c(Nc4ccc(I)cc4F)n(C)c(=O)c(C)c32)c1 [Trametinib] (first compound max 2 µM, 7x7, partner max 1 µM) | 0.97 | 0.0652 | 0.625 | 0.641 | 0.517 | 0.838 | 0.49 | 0.892 | 0.748 | 0.9 | 0.468 | 0.781 | 0.615 | 0.936 | 0.469 | 0.756 | 0.877 | 0.543 | 0.552 | 0.503
